Experimental data published in ChEMBL document CHEMBL3885881, “DrugMatrix”.

Organism: Rattus norvegicus
Assay: DrugMatrix - Regimen: Daily Repeat
Assay type: toxicity, organism-based, Sprague-Dawley
Design: regimen Daily Repeat, gender Male, age 6-8 weeks
Conditions: in vivo, po, route oral GAVAGE, […]; for ABSOLUTE BASOPHIL / ABSOLUTE EOSINOPHIL / ABSOLUTE LYMPHOCYTE / ABSOLUTE MONOCYTE / ABSOLUTE SEGMENTED NEUTROPHIL / BASOPHIL / EOSINOPHIL / ERYTHROCYTE COUNT / HEMATOCRIT / HEMOGLOBIN / LEUKOCYTE COUNT / LYMPHOCYTE / MEAN CORPUSCULAR HEMOGLOBIN / MEAN CORPUSCULAR HEMOGLOBIN CONCENTRATION / MEAN CORPUSCULAR VOLUME / MONOCYTE / NEUTROPHIL / NUCLEATED RED BLOOD CELLS / PLATELET COUNT: tissue Blood; for ALANINE AMINOTRANSFERASE / ALBUMIN / ALKALINE PHOSPHATASE / ASPARTATE AMINOTRANSFERASE / BLOOD UREA NITROGEN / CARBON DIOXIDE / CHLORIDE / CHOLESTEROL / CREATINE PHOSPHOKINASE / CREATININE / GLUCOSE / LACTATE DEHYDROGENASE / LIPASE / PHOSPHORUS / POTASSIUM / SODIUM / TOTAL BILIRUBIN / TOTAL PROTEIN / URIC ACID: tissue Plasma
[1] = 0 mg/kg, 72 h, dose level Control, time 3 day
[2] = 0 mg/kg, 120 h, dose level Control, time 5 day
[3] = 20 mg/kg, 72 h, dose level Low, time 3 day
[4] = 20 mg/kg, 120 h, dose level Low, time 5 day

O=c1c(-c2ccc(O)cc2)coc2cc(O)cc(O)c12 [GENISTEIN]
ABSOLUTE BASOPHIL [1]: 0 CELLS/uL
ABSOLUTE EOSINOPHIL [1]: 14 CELLS/uL
ABSOLUTE LYMPHOCYTE [1]: 11144.67 CELLS/uL
ABSOLUTE MONOCYTE [1]: 22.5 CELLS/uL
ABSOLUTE SEGMENTED NEUTROPHIL [1]: 535.5 CELLS/uL
BASOPHIL [1]: 0%
EOSINOPHIL [1]: 0.17%
ERYTHROCYTE COUNT [1]: 5.08 x10E6/uL
HEMATOCRIT [1]: 32.32%
HEMOGLOBIN [1]: 12.87 G/DL
LEUKOCYTE COUNT [1]: 11.72 x10E3/uL
LYMPHOCYTE [1]: 94.67%
MEAN CORPUSCULAR HEMOGLOBIN [1]: 25.37 pg
MEAN CORPUSCULAR HEMOGLOBIN CONCENTRATION [1]: 39.85 G/DL
MEAN CORPUSCULAR VOLUME [1]: 63.58 fL
MONOCYTE [1]: 0.17%
NEUTROPHIL [1]: 5%
NUCLEATED RED BLOOD CELLS [1]: 0 /100WBC
PLATELET COUNT [1]: 1084 x10E3/uL
ALANINE AMINOTRANSFERASE [1]: 67.5 u/L
ALBUMIN [1]: 4.02 G/DL
ALKALINE PHOSPHATASE [1]: 374.17 u/L
ASPARTATE AMINOTRANSFERASE [1]: 83.5 u/L
BLOOD UREA NITROGEN [1]: 14.5 mg/dL
CARBON DIOXIDE [1]: 30 mmol/L
CHLORIDE [1]: 100.5 MEQ/L
CHOLESTEROL [1]: 71.33 mg/dL
CREATINE PHOSPHOKINASE [1]: 268.33 u/L
CREATININE [1]: 0.16 mg/dL
GLUCOSE [1]: 170.5 mg/dL
LACTATE DEHYDROGENASE [1]: 81.17 u/L
LIPASE [1]: 16.67 u/L
PHOSPHORUS [1]: 10.07 mg/dL
POTASSIUM [1]: 5.03 MEQ/L
SODIUM [1]: 142.92 MEQ/L
TOTAL BILIRUBIN [1]: 0.17 mg/dL
TOTAL PROTEIN [1]: 5.63 G/DL
URIC ACID [1]: 0.5 mg/dL
ABSOLUTE BASOPHIL [2]: 0 CELLS/uL
ABSOLUTE EOSINOPHIL [2]: 37.5 CELLS/uL
ABSOLUTE LYMPHOCYTE [2]: 8049.5 CELLS/uL
ABSOLUTE MONOCYTE [2]: 82.83 CELLS/uL
ABSOLUTE SEGMENTED NEUTROPHIL [2]: 646.83 CELLS/uL
BASOPHIL [2]: 0%
EOSINOPHIL [2]: 0.5%
ERYTHROCYTE COUNT [2]: 5.36 x10E6/uL
HEMATOCRIT [2]: 33.9%
HEMOGLOBIN [2]: 13.02 G/DL
LEUKOCYTE COUNT [2]: 8.82 x10E3/uL
LYMPHOCYTE [2]: 90.17%
MEAN CORPUSCULAR HEMOGLOBIN [2]: 24.32 pg
MEAN CORPUSCULAR HEMOGLOBIN CONCENTRATION [2]: 38.42 G/DL
MEAN CORPUSCULAR VOLUME [2]: 63.32 fL
MONOCYTE [2]: 1.17%
NEUTROPHIL [2]: 8.17%
NUCLEATED RED BLOOD CELLS [2]: 0.17 /100WBC
PLATELET COUNT [2]: 1231.5 x10E3/uL
ALANINE AMINOTRANSFERASE [2]: 62 u/L
ALBUMIN [2]: 3.97 G/DL
ALKALINE PHOSPHATASE [2]: 303.67 u/L
ASPARTATE AMINOTRANSFERASE [2]: 84.5 u/L
BLOOD UREA NITROGEN [2]: 14.83 mg/dL
CARBON DIOXIDE [2]: 31.83 mmol/L
CHLORIDE [2]: 97 MEQ/L
CHOLESTEROL [2]: 68.83 mg/dL
CREATINE PHOSPHOKINASE [2]: 411.33 u/L
CREATININE [2]: 0.16 mg/dL
GLUCOSE [2]: 170.17 mg/dL
LACTATE DEHYDROGENASE [2]: 88.5 u/L
LIPASE [2]: 9.5 u/L
PHOSPHORUS [2]: 9.98 mg/dL
POTASSIUM [2]: 5.72 MEQ/L
SODIUM [2]: 141.62 MEQ/L
TOTAL BILIRUBIN [2]: 0.1 mg/dL
TOTAL PROTEIN [2]: 5.67 G/DL
URIC ACID [2]: 0.52 mg/dL
ABSOLUTE BASOPHIL [3]: 0 CELLS/uL
ABSOLUTE EOSINOPHIL [3]: 0 CELLS/uL
ABSOLUTE LYMPHOCYTE [3]: 8352.33 CELLS/uL
ABSOLUTE MONOCYTE [3]: 117.33 CELLS/uL
ABSOLUTE SEGMENTED NEUTROPHIL [3]: 697 CELLS/uL
BASOPHIL [3]: 0%
EOSINOPHIL [3]: 0%
ERYTHROCYTE COUNT [3]: 4.71 x10E6/uL
HEMATOCRIT [3]: 30.2%
HEMOGLOBIN [3]: 12.1 G/DL
LEUKOCYTE COUNT [3]: 9.17 x10E3/uL
LYMPHOCYTE [3]: 91%
MEAN CORPUSCULAR HEMOGLOBIN [3]: 25.73 pg
MEAN CORPUSCULAR HEMOGLOBIN CONCENTRATION [3]: 40.07 G/DL
MEAN CORPUSCULAR VOLUME [3]: 64.27 fL
MONOCYTE [3]: 1.33%
NEUTROPHIL [3]: 7.67%
NUCLEATED RED BLOOD CELLS [3]: 0 /100WBC
PLATELET COUNT [3]: 970.67 x10E3/uL
ALANINE AMINOTRANSFERASE [3]: 69.33 u/L
ALBUMIN [3]: 3.73 G/DL
ALKALINE PHOSPHATASE [3]: 415.33 u/L
ASPARTATE AMINOTRANSFERASE [3]: 87 u/L
BLOOD UREA NITROGEN [3]: 14 mg/dL
CARBON DIOXIDE [3]: 31.33 mmol/L
CHLORIDE [3]: 101.33 MEQ/L
CHOLESTEROL [3]: 55.33 mg/dL
CREATINE PHOSPHOKINASE [3]: 256 u/L
CREATININE [3]: 0.16 mg/dL
GLUCOSE [3]: 157.33 mg/dL
LACTATE DEHYDROGENASE [3]: 72 u/L
LIPASE [3]: 10.33 u/L
PHOSPHORUS [3]: 9.33 mg/dL
POTASSIUM [3]: 5.54 MEQ/L
SODIUM [3]: 144.67 MEQ/L
TOTAL BILIRUBIN [3]: 0.2 mg/dL
TOTAL PROTEIN [3]: 5.43 G/DL
URIC ACID [3]: 0.37 mg/dL
ABSOLUTE BASOPHIL [4]: 0 CELLS/uL
ABSOLUTE EOSINOPHIL [4]: 0 CELLS/uL
ABSOLUTE LYMPHOCYTE [4]: 8287 CELLS/uL
ABSOLUTE MONOCYTE [4]: 65 CELLS/uL
ABSOLUTE SEGMENTED NEUTROPHIL [4]: 1548 CELLS/uL
BASOPHIL [4]: 0%
EOSINOPHIL [4]: 0%
ERYTHROCYTE COUNT [4]: 4.93 x10E6/uL
HEMATOCRIT [4]: 31.57%
HEMOGLOBIN [4]: 12.13 G/DL
LEUKOCYTE COUNT [4]: 9.9 x10E3/uL
LYMPHOCYTE [4]: 84%
MEAN CORPUSCULAR HEMOGLOBIN [4]: 24.67 pg
MEAN CORPUSCULAR HEMOGLOBIN CONCENTRATION [4]: 38.43 G/DL
MEAN CORPUSCULAR VOLUME [4]: 64.13 fL
MONOCYTE [4]: 1%
NEUTROPHIL [4]: 15%
NUCLEATED RED BLOOD CELLS [4]: 0.33 /100WBC
PLATELET COUNT [4]: 1213.67 x10E3/uL
ALANINE AMINOTRANSFERASE [4]: 61.33 u/L
ALBUMIN [4]: 3.83 G/DL
ALKALINE PHOSPHATASE [4]: 296.67 u/L
ASPARTATE AMINOTRANSFERASE [4]: 87.33 u/L
BLOOD UREA NITROGEN [4]: 17 mg/dL
CARBON DIOXIDE [4]: 33 mmol/L
CHLORIDE [4]: 98.5 MEQ/L
CHOLESTEROL [4]: 69.67 mg/dL
CREATINE PHOSPHOKINASE [4]: 277.33 u/L
CREATININE [4]: 0.12 mg/dL
GLUCOSE [4]: 143.33 mg/dL
LACTATE DEHYDROGENASE [4]: 87.67 u/L
LIPASE [4]: 11.67 u/L
PHOSPHORUS [4]: 10.4 mg/dL
POTASSIUM [4]: 5.69 MEQ/L
SODIUM [4]: 143.35 MEQ/L
TOTAL BILIRUBIN [4]: 0.0667 mg/dL
TOTAL PROTEIN [4]: 5.57 G/DL
URIC ACID [4]: 0.43 mg/dL
